From ChEMBL document CHEMBL1201862, “PubChem BioAssay data set” (2004)
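Exposure lasted 48 hours, with cells grown in 96-well plates and compounds tested at five concentrations. Here, GI50 denotes the concentration required for 50% inhibition of growth.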 Active and inactive are the calls of the source. Cut-off read from the data, not from the text of the source: active = GI50 up to about 1.1 µM and inactive = higher.

Experiments:
Test in all cases: growth of human tumour cells (NCI), 48 h
[1] = test system: 786-0
[2] = test system: CCRF-CEM
[3] = test system: HL-60
[4] = test system: HT-29
[5] = test system: K562
[6] = test system: LOX IMVI
[7] = test system: M14
[8] = test system: MCF7
[9] = test system: MDA-N
[10] = test system: Malme-3M
[11] = test system: NCI-H23
[12] = test system: NCI-H460
[13] = test system: SF-295
[14] = test system: SK-MEL-28
[15] = test system: SK-OV-3
[16] = test system: SNB-19
[17] = test system: SNB-75
[18] = test system: SR
[19] = test system: SW-620
[20] = test system: UACC-257

| Compound | GI50 [1] | GI50 [2] | GI50 [3] | GI50 [4] | GI50 [5] | GI50 [6] | GI50 [7] | GI50 [8] | GI50 [9] | GI50 [10] | GI50 [11] | GI50 [12] | GI50 [13] | GI50 [14] | GI50 [15] | GI50 [16] | GI50 [17] | GI50 [18] | GI50 [19] | GI50 [20] |
| --- | --- | --- | --- | --- | --- | --- | --- | --- | --- | --- | --- | --- | --- | --- | --- | --- | --- | --- | --- | --- |
| O=C1CSC(/C=C/c2ccccc2)N1c1ccc(-n2c(-c3ccccc3)nc3ccccc3c2=O)cc1 (stereo not drawn) | > 100 µM (inactive) | 66.1 µM (inactive) | > 100 µM (inactive) | > 100 µM (inactive) | > 100 µM (inactive) | 95.3 µM (inactive) | > 100 µM (inactive) | 52.2 µM (inactive) | > 100 µM (inactive) | > 100 µM (inactive) | > 100 µM (inactive) | 87.3 µM (inactive) | > 100 µM (inactive) | > 100 µM (inactive) | 19.3 µM (inactive) | > 100 µM (inactive) | 22.6 µM (inactive) | 37.1 µM (inactive) | > 10 µM (inactive) | > 100 µM (inactive) |
| O=c1[nH]nc(Cc2ccccc2)n1/N=C/c1c[nH]c2ccccc12 | 43 µM (inactive) | > 100 µM (inactive) | > 100 µM (inactive) | 71.6 µM (inactive) | > 100 µM (inactive) | > 100 µM (inactive) | > 100 µM (inactive) | > 100 µM (inactive) | 29.8 µM (inactive) | 57.1 µM (inactive) | > 100 µM (inactive) | > 100 µM (inactive) | 27.7 µM (inactive) | > 100 µM (inactive) | 96.2 µM (inactive) | 49.5 µM (inactive) | 13.3 µM (inactive) | > 100 µM (inactive) | > 100 µM (inactive) | 96.2 µM (inactive) |
| CN(C)/C=N/NC(=O)/C(C#N)=C/N(C)C | > 100 µM (inactive) | > 100 µM (inactive) | > 100 µM (inactive) | > 100 µM (inactive) | > 100 µM (inactive) | > 100 µM (inactive) | > 100 µM (inactive) | > 100 µM (inactive) | > 100 µM (inactive) | 75.3 µM (inactive) | > 100 µM (inactive) | > 100 µM (inactive) | > 100 µM (inactive) | > 100 µM (inactive) | > 100 µM (inactive) | > 100 µM (inactive) | > 100 µM (inactive) | > 100 µM (inactive) | > 100 µM (inactive) | > 100 µM (inactive) |
| O=C(CCl)Nc1ccc(C(=O)N/N=C/c2ccc(Cl)cc2)cc1 | 1.58 µM (inactive) | 1.82 µM (inactive) | 1.6 µM (inactive) | 1.67 µM (inactive) | 2.89 µM (inactive) | 1.48 µM (inactive) | 6.41 µM (inactive) | 5.09 µM (inactive) | 1.83 µM (inactive) | 2.01 µM (inactive) | 2.44 µM (inactive) | 2 µM (inactive) | 4.06 µM (inactive) | 5.68 µM (inactive) | 3.03 µM (inactive) | 7.41 µM (inactive) | 14.9 µM (inactive) | 1.79 µM (inactive) | 2.74 µM (inactive) | 1.67 µM (inactive) |
| Cn1c(=O)c2nc(CCCCc3nc4ccccc4[nH]3)[nH]c2n(C)c1=O | > 100 µM (inactive) | > 100 µM (inactive) | > 100 µM (inactive) | > 100 µM (inactive) | > 100 µM (inactive) | > 100 µM (inactive) | > 100 µM (inactive) | > 100 µM (inactive) | > 100 µM (inactive) | > 100 µM (inactive) | > 100 µM (inactive) | > 100 µM (inactive) | > 100 µM (inactive) | > 100 µM (inactive) | > 100 µM (inactive) | > 100 µM (inactive) | 30.1 µM (inactive) | > 100 µM (inactive) | > 100 µM (inactive) | > 100 µM (inactive) |
| CCC[C@H](C)[C@H]1NC(=O)[C@@H](NC(=O)[C@@H](CC(C)C)N(C)C(=O)C2CCCN2C(=O)[C@H](C)O)[C@@H](C)OC(=O)[C@H](CC(C)C)N(C)C(=O)[C@@H]2CCCN2C(=O)[C@H](CC(C)C)NC(=O)[C@@H](C)C(=O)[C@H](C(C)C)OC(=O)C[C@@H]1O (stereo partly drawn) | < 0.0025 µM (active) | < 0.0025 µM (active) | < 0.0025 µM (active) | < 0.0025 µM (active) | < 0.0025 µM (active) | < 0.0025 µM (active) | < 0.0025 µM (active) | < 0.0025 µM (active) | < 0.0025 µM (active) | < 0.0025 µM (active) | < 0.0025 µM (active) | < 0.0025 µM (active) | < 0.0025 µM (active) | < 0.0025 µM (active) | < 0.0025 µM (active) | < 0.0025 µM (active) | < 0.0025 µM (active) | < 0.0025 µM (active) | < 0.0025 µM (active) | < 0.0025 µM (active) |
| OC1CC2CCCN(CCc3c1[nH]c1ccccc31)C2 (stereo not drawn) | > 100 µM (inactive) | > 100 µM (inactive) | > 100 µM (inactive) | > 100 µM (inactive) | > 100 µM (inactive) | > 100 µM (inactive) |  | > 100 µM (inactive) | > 100 µM (inactive) | > 100 µM (inactive) | > 100 µM (inactive) | > 100 µM (inactive) | > 100 µM (inactive) | > 100 µM (inactive) | > 100 µM (inactive) | > 100 µM (inactive) | > 100 µM (inactive) | 97.1 µM (inactive) | > 100 µM (inactive) | 67.6 µM (inactive) |
| COc1ccc(OC)c(-c2cc(=O)c3c(OC)c(OC)c(OC)c(OC)c3o2)c1 | 27.4 µM (inactive) | 13.4 µM (inactive) | 14.2 µM (inactive) | 33.6 µM (inactive) | 22.2 µM (inactive) | 25.6 µM (inactive) | 36.1 µM (inactive) | 14.5 µM (inactive) | 35.9 µM (inactive) | 24.3 µM (inactive) | 30.1 µM (inactive) | 25.4 µM (inactive) | 18.7 µM (inactive) | 40.1 µM (inactive) | 22.8 µM (inactive) | 34.4 µM (inactive) | 46.8 µM (inactive) | 6.17 µM (inactive) | 33 µM (inactive) | 36.2 µM (inactive) |
| O=c1c2ccccc2sc2cccc(NCCCN3CCN(CCCNc4cccc5sc6ccccc6c(=O)c45)CC3)c12 | > 100 µM (inactive) | > 100 µM (inactive) | > 100 µM (inactive) | > 100 µM (inactive) | > 100 µM (inactive) | > 100 µM (inactive) | > 100 µM (inactive) | > 100 µM (inactive) | > 100 µM (inactive) | > 100 µM (inactive) | > 100 µM (inactive) | > 100 µM (inactive) | > 100 µM (inactive) | > 100 µM (inactive) | > 100 µM (inactive) | > 100 µM (inactive) | 19.5 µM (inactive) | > 100 µM (inactive) | > 100 µM (inactive) | > 100 µM (inactive) |
| Cc1cc(=O)n2nc(SCc3ccccc3)sc2n1 | > 100 µM (inactive) | > 100 µM (inactive) | > 100 µM (inactive) | > 100 µM (inactive) | 18.2 µM (inactive) | 77.4 µM (inactive) | > 100 µM (inactive) | > 100 µM (inactive) | > 100 µM (inactive) | > 100 µM (inactive) | > 100 µM (inactive) | > 100 µM (inactive) | > 100 µM (inactive) | > 100 µM (inactive) | > 100 µM (inactive) | > 100 µM (inactive) | > 100 µM (inactive) | > 100 µM (inactive) | > 100 µM (inactive) |  |
